Assay: xn = mol fraction of the nth substance listed
Details: 101 kPa, Liquid; for mass density: Vibrating tube method; for speed of sound: fixed-path interferometer; for viscosity: Capillary tube (Ostwald / Ubbelohde) method

CCCCOCCO [2-butoxyethan-1-ol] + CCCCCCCCCCO
Details | mass density [kg/m3] | speed of sound [m/s] | viscosity [mPa·s]
293.15 K, x1 = 0.0563 | 832.457 | 1392 | –
293.15 K, x1 = 0.1024 | 834.521 | 1388.2 | –
293.15 K, x1 = 0.1544 | 836.95 | 1383.8 | –
293.15 K, x1 = 0.2049 | 839.424 | 1379.5 | –
293.15 K, x1 = 0.2531 | 841.903 | 1374.8 | –
293.15 K, x1 = 0.3066 | 844.775 | 1369.9 | –
293.15 K, x1 = 0.4028 | 850.363 | 1360.7 | –
293.15 K, x1 = 0.5033 | 856.773 | 1351.5 | –
293.15 K, x1 = 0.6031 | 863.803 | 1343.5 | –
293.15 K, x1 = 0.7009 | 871.448 | 1337.1 | –
293.15 K, x1 = 0.8043 | 880.396 | 1331.2 | –
293.15 K, x1 = 0.8532 | 884.962 | 1328.7 | –
293.15 K, x1 = 0.8996 | 889.528 | 1326.3 | –
293.15 K, x1 = 0.9447 | 894.239 | 1324.5 | –
298.15 K, x1 = 0.0563 | 829 | 1374.9 | 10.7
298.15 K, x1 = 0.1024 | 831.148 | 1371.1 | 9.884
298.15 K, x1 = 0.1544 | 833.643 | 1366.8 | 9.125
298.15 K, x1 = 0.2049 | 836.177 | 1362.6 | 8.425
298.15 K, x1 = 0.2531 | 838.694 | 1358.3 | 7.84
298.15 K, x1 = 0.3066 | 841.628 | 1353.7 | 7.29
298.15 K, x1 = 0.4028 | 847.26 | 1344.9 | 6.351
298.15 K, x1 = 0.5033 | 853.675 | 1336.1 | 5.491
298.15 K, x1 = 0.6031 | 860.637 | 1328.2 | 4.852
298.15 K, x1 = 0.7009 | 868.128 | 1321.1 | 4.26
298.15 K, x1 = 0.8043 | 876.828 | 1314.9 | 3.68
298.15 K, x1 = 0.8532 | 881.288 | 1312.6 | 3.446
298.15 K, x1 = 0.8996 | 885.737 | 1310.2 | 3.261
298.15 K, x1 = 0.9447 | 890.317 | 1308.3 | 3.107
303.15 K, x1 = 0.0563 | 825.535 | 1358.1 | 8.765
303.15 K, x1 = 0.1024 | 827.625 | 1354.4 | 8.155
303.15 K, x1 = 0.1544 | 830.09 | 1350.1 | 7.554
303.15 K, x1 = 0.2049 | 832.6 | 1345.9 | 7.026
303.15 K, x1 = 0.2531 | 835.09 | 1341.7 | 6.577
303.15 K, x1 = 0.3066 | 837.986 | 1337.1 | 6.114
303.15 K, x1 = 0.4028 | 843.566 | 1328.9 | 5.33
303.15 K, x1 = 0.5033 | 849.927 | 1320.8 | 4.683
303.15 K, x1 = 0.6031 | 856.84 | 1313.2 | 4.089
303.15 K, x1 = 0.7009 | 864.279 | 1306.3 | 3.638
303.15 K, x1 = 0.8043 | 872.98 | 1299.7 | 3.162
303.15 K, x1 = 0.8532 | 877.42 | 1296.7 | 2.979
303.15 K, x1 = 0.8996 | 881.86 | 1294.2 | 2.814
303.15 K, x1 = 0.9447 | 886.371 | 1291.7 | 2.671
308.15 K, x1 = 0.0563 | 822.068 | 1341.5 | 7.476
308.15 K, x1 = 0.1024 | 824.141 | 1337.8 | 6.95
308.15 K, x1 = 0.1544 | 826.569 | 1333.9 | 6.449
308.15 K, x1 = 0.2049 | 829.044 | 1330 | 5.981
308.15 K, x1 = 0.2531 | 831.491 | 1326.1 | 5.619
308.15 K, x1 = 0.3066 | 834.361 | 1321.8 | 5.215
308.15 K, x1 = 0.4028 | 839.86 | 1314.1 | 4.618
308.15 K, x1 = 0.5033 | 846.141 | 1306 | 4.088
308.15 K, x1 = 0.6031 | 852.988 | 1298.2 | 3.601
308.15 K, x1 = 0.7009 | 860.384 | 1290.9 | 3.195
308.15 K, x1 = 0.8043 | 869.011 | 1283.7 | 2.808
308.15 K, x1 = 0.8532 | 873.415 | 1280.6 | 2.609
308.15 K, x1 = 0.8996 | 877.785 | 1277.7 | 2.453
308.15 K, x1 = 0.9447 | 882.225 | 1275.3 | 2.295
313.15 K, x1 = 0.0563 | 818.532 | 1324.8 | –
313.15 K, x1 = 0.1024 | 820.551 | 1321.5 | –
313.15 K, x1 = 0.1544 | 822.945 | 1317.8 | –
313.15 K, x1 = 0.2049 | 825.399 | 1314.2 | –
313.15 K, x1 = 0.2531 | 827.825 | 1310.6 | –
313.15 K, x1 = 0.3066 | 830.657 | 1306.6 | –
313.15 K, x1 = 0.4028 | 836.098 | 1299.4 | –
313.15 K, x1 = 0.5033 | 842.307 | 1292 | –
313.15 K, x1 = 0.6031 | 849.078 | 1284.5 | –
313.15 K, x1 = 0.7009 | 856.416 | 1277 | –
313.15 K, x1 = 0.8043 | 864.959 | 1269.4 | –
313.15 K, x1 = 0.8532 | 869.328 | 1266.2 | –
313.15 K, x1 = 0.8996 | 873.661 | 1262.7 | –
313.15 K, x1 = 0.9447 | 878.012 | 1259.7 | –

CCCCOCCO [2-butoxyethan-1-ol] + CCCCCCCCO
Details | mass density [kg/m3] | speed of sound [m/s] | viscosity [mPa·s]
293.15 K, x1 = 0.053 | 828.488 | 1361.8 | –
293.15 K, x1 = 0.105 | 831.623 | 1359 | –
293.15 K, x1 = 0.167 | 835.443 | 1355.4 | –
293.15 K, x1 = 0.2004 | 837.529 | 1353.2 | –
293.15 K, x1 = 0.2561 | 841.092 | 1350.3 | –
293.15 K, x1 = 0.3039 | 844.242 | 1347.8 | –
293.15 K, x1 = 0.4046 | 851.133 | 1342.7 | –
293.15 K, x1 = 0.5013 | 858.109 | 1338.2 | –
293.15 K, x1 = 0.6004 | 865.629 | 1334 | –
293.15 K, x1 = 0.7009 | 873.666 | 1330.3 | –
293.15 K, x1 = 0.8027 | 882.262 | 1327 | –
293.15 K, x1 = 0.852 | 886.596 | 1325.6 | –
293.15 K, x1 = 0.9007 | 891.001 | 1324.4 | –
293.15 K, x1 = 0.9512 | 895.736 | 1323.4 | –
298.15 K, x1 = 0.053 | 825.018 | 1344.8 | 6.97
298.15 K, x1 = 0.1049 | – | – | 6.636
298.15 K, x1 = 0.105 | 828.108 | 1342.1 | –
298.15 K, x1 = 0.167 | 831.899 | 1338.4 | 6.076
298.15 K, x1 = 0.2004 | 833.978 | 1336.4 | 5.882
298.15 K, x1 = 0.2561 | 837.535 | 1333.4 | 5.471
298.15 K, x1 = 0.3039 | 840.656 | 1330.9 | 5.254
298.15 K, x1 = 0.4046 | 847.482 | 1325.9 | 4.678
298.15 K, x1 = 0.5013 | 854.363 | 1321.3 | 4.286
298.15 K, x1 = 0.6004 | 861.773 | 1316.9 | 3.885
298.15 K, x1 = 0.7009 | 869.705 | 1313.2 | 3.588
298.15 K, x1 = 0.8027 | 878.21 | 1310 | 3.287
298.15 K, x1 = 0.852 | 882.514 | 1308.5 | 3.165
298.15 K, x1 = 0.9007 | 886.89 | 1307.5 | 3.04
298.15 K, x1 = 0.9512 | 891.594 | 1306.5 | 2.901
303.15 K, x1 = 0.053 | 821.521 | 1328.1 | 5.789
303.15 K, x1 = 0.1049 | – | – | 5.499
303.15 K, x1 = 0.105 | 824.6 | 1325.4 | –
303.15 K, x1 = 0.167 | 828.337 | 1321.7 | 5.128
303.15 K, x1 = 0.2004 | 830.387 | 1319.7 | 4.946
303.15 K, x1 = 0.2561 | 833.89 | 1316.7 | 4.656
303.15 K, x1 = 0.3039 | 836.962 | 1314.2 | 4.44
303.15 K, x1 = 0.4046 | 843.721 | 1309.1 | 4.001
303.15 K, x1 = 0.5013 | 850.582 | 1304.5 | 3.647
303.15 K, x1 = 0.6004 | 857.95 | 1300.3 | 3.31
303.15 K, x1 = 0.7009 | 865.804 | 1296.5 | 3.045
303.15 K, x1 = 0.8027 | 874.181 | 1293.3 | 2.825
303.15 K, x1 = 0.852 | 878.409 | 1292 | 2.734
303.15 K, x1 = 0.9007 | 882.718 | 1290.8 | 2.661
303.15 K, x1 = 0.9512 | 887.379 | 1289.8 | 2.636
308.15 K, x1 = 0.053 | 818.004 | 1311.3 | 5.048
308.15 K, x1 = 0.1049 | – | – | 4.78
308.15 K, x1 = 0.105 | 821.021 | 1308.8 | –
308.15 K, x1 = 0.167 | 824.71 | 1305.5 | 4.442
308.15 K, x1 = 0.2004 | 826.746 | 1303.3 | 4.298
308.15 K, x1 = 0.2561 | 830.229 | 1300.5 | 4.049
308.15 K, x1 = 0.3039 | 833.292 | 1298.2 | 3.878
308.15 K, x1 = 0.4046 | 839.998 | 1293.1 | 3.519
308.15 K, x1 = 0.5013 | 846.771 | 1288.7 | 3.229
308.15 K, x1 = 0.6004 | 854.07 | 1284.5 | 2.965
308.15 K, x1 = 0.7009 | 861.87 | 1280.5 | 2.753
308.15 K, x1 = 0.8027 | 870.213 | 1277 | 2.545
308.15 K, x1 = 0.852 | 874.403 | 1275.4 | 2.457
308.15 K, x1 = 0.9007 | 878.687 | 1274.1 | 2.369
308.15 K, x1 = 0.9512 | 883.226 | 1273 | 2.281
313.15 K, x1 = 0.053 | 814.437 | 1294.9 | –
313.15 K, x1 = 0.105 | 817.45 | 1292.3 | –
313.15 K, x1 = 0.167 | 821.134 | 1289.2 | –
313.15 K, x1 = 0.2004 | 823.153 | 1287.3 | –
313.15 K, x1 = 0.2561 | 826.589 | 1284.5 | –
313.15 K, x1 = 0.3039 | 829.618 | 1282.2 | –
313.15 K, x1 = 0.4046 | 836.231 | 1277.4 | –
313.15 K, x1 = 0.5013 | 842.934 | 1273 | –
313.15 K, x1 = 0.6004 | 850.161 | 1268.8 | –
313.15 K, x1 = 0.7009 | 857.881 | 1264.7 | –
313.15 K, x1 = 0.8027 | 866.131 | 1261.1 | –
313.15 K, x1 = 0.852 | 870.301 | 1259.5 | –
313.15 K, x1 = 0.9007 | 874.538 | 1258 | –
313.15 K, x1 = 0.9512 | 879.067 | 1256.6 | –
